Activity calls are given as the source filed them. The rule behind the calls is not given here.
System: GENE-TOX genotoxicity assays, various organisms and cells
Experiment: GENE-TOX mutagenicity studies
Conditions: for call: Assay Type: In vivo carcinogenicity studies
[1] = Species/Cell Type: Nonhuman, Assay Code: CCG+, Evaluation Type: Evaluation A (Pre-1980)
[2] = Species/Cell Type: Bacillus subtilis (H17 vs M45T), Assay Type: Rec-assay, spot test, DNA effects (bacterial DNA repair), Assay Code: REXT, Evaluation Type: Evaluation A (Pre-1980)
[3] = Species/Cell Type: Human lymphocytes, Assay Type: Sister-chromatid exchange (SCE) in vitro, Assay Code: SCL+D, Dose Response: With dose response, Evaluation Type: Evaluation B (Post-1980)
[4] = Species/Cell Type: Human, Assay Type: Sister-chromatid exchange (SCE) in vitro, Assay Code: SC1+D, Dose Response: With dose response, Evaluation Type: Evaluation B (Post-1980)
[5] = Species/Cell Type: Salmonella typhimurium (one or more of the five standard strains: TA98, TA100, TA1535, TA1537, and TA1538), Assay Type: Histidine reverse gene mutation, Ames assay, Assay Code: SAL+*, Activation: With metabolic activation, Evaluation Type: Evaluation A (Pre-1980)
[6] = Species/Cell Type: Syrian hamster embryo (SHE) cells, Assay Type: Cell transformation, clonal assay, Assay Code: CTC+, Evaluation Type: Evaluation A (Pre-1980)
[7] = Species/Cell Type: Nonhuman, Assay Type: Sister-chromatid exchange (SCE) in vivo, Assay Code: SC3+, Evaluation Type: Evaluation B (Post-1980)
[8] = Species/Cell Type: Salmonella typhimurium (one or more of the five standard strains: TA98, TA100, TA1535, TA1537, and TA1538), Assay Type: Histidine reverse gene mutation, Ames assay, Assay Code: SAL+, Evaluation Type: Evaluation A (Pre-1980)
[9] = Species/Cell Type: Mammalian polychromatic erythrocytes, Assay Type: Micronucleus test, chromosome aberrations, Assay Code: MNT+, Evaluation Type: Evaluation B (Post-1980)
[10] = Species/Cell Type: Drosophila melanogaster, Assay Type: Sex-linked recessive lethal gene mutation, Assay Code: SRL+, Evaluation Type: Evaluation A (Pre-1980)

Compound: CC(=O)[O-].CC(=O)[O-].[OH-].[OH-].[OH-].[OH-].[Pb+2].[Pb+2].[Pb+2]
- call [1]: active; positive
- mutagenic call (Species/Cell Type: Rodents, Sex: Male, Assay Type: Dominant lethal test, Assay Code: DLTT, Evaluation Type: Evaluation A (Pre-1980)): no conclusion

Compound: NC[C@H]1O[C@H](O[C@H]2[C@H](O)[C@@H](O[C@H]3O[C@H](CO)[C@@H](O)[C@H](N)[C@H]3O)[C@H](N)C[C@@H]2N)[C@H](O)[C@@H](O)[C@@H]1O
- mutagenic call [2]: no conclusion
- mutagenic call (Species/Cell Type: Escherichia coli polA (W3119 vs P3478), Assay Type: Rec-assay, DNA effects (bacterial DNA repair), Assay Code: RE1-, Evaluation Type: Evaluation A (Pre-1980)): inactive; negative
- mutagenic call (Species/Cell Type: Saccharomyces cerevisiae, Assay Type: Mitotic recombination or gene conversion, Assay Code: YEH-, Evaluation Type: Evaluation A (Pre-1980)): inactive; negative

Compound: O[C@@H]1[C@H]2O[C@H]2c2cc3ccc4ccccc4c3cc2[C@H]1O
- mutagenic call (Species/Cell Type: Chinese hamster lung (V79) cells, Assay Type: Forward gene mutation at the HPRT or ouabain locus, Assay Code: V79+, Evaluation Type: Evaluation A (Pre-1980)): active; positive

Compound: Cc1c(N)nc(C)c2c1[nH]c1ccccc12
- mutagenic call [3]: active; positive
- mutagenic call [4]: active; positive
- call [1]: active; positive
- mutagenic call [5]: active; positive
- mutagenic call [6]: active; positive

Compound: COc1cc(O)c2c(O)c3c(c4c2c1[C@]1(C4)C(C)=CCCC1(C)C)[C@H](O)[C@@]1(O)CC(=O)C(C(N)=O)=C(O)[C@@]1(O)C3=O
- mutagenic call [5]: active; positive

Compound: O=C1OC(=O)c2ccccc21
- call (Species/Cell Type: Nonhuman, Assay Code: CCG-, Evaluation Type: Evaluation A (Pre-1980)): inactive; negative

Compound: Cn1c(N)nc2c3cccnc3ccc21
- mutagenic call (Species/Cell Type: Chinese hamster ovary (CHO) cells, Assay Type: Forward gene mutation at the HPRT locus, Assay Code: CHOT, Evaluation Type: Evaluation B (Post-1980)): no conclusion
- mutagenic call (Species/Cell Type: Mammalian polychromatic erythrocytes, Assay Type: Micronucleus test, chromosome aberrations, Assay Code: MNT-, Evaluation Type: Evaluation B (Post-1980)): inactive; negative
- mutagenic call (Species/Cell Type: Nonhuman, Assay Type: Sister-chromatid exchange (SCE) in vitro, Assay Code: SC2+D*, Activation: With metabolic activation, Dose Response: With dose response, Evaluation Type: Evaluation B (Post-1980)): active; positive
- mutagenic call [7]: active; positive

Compound: CCOC(=O)C1C(C=C(C)C)C1(C)C (centres undefined)
- mutagenic call (Species/Cell Type: Human diploid fibroblasts, Assay Type: Unscheduled DNA synthesis (UDS) in vitro, DNA effects, Assay Code: UDH-, Evaluation Type: Evaluation A (Pre-1980)): inactive; negative
- mutagenic call (Species/Cell Type: Saccharomyces cerevisiae, Assay Type: Mitotic recombination or gene conversion, Assay Code: YEH+, Evaluation Type: Evaluation A (Pre-1980)): active; positive

Compound: CC(=O)Nc1nc(/C=C/c2ccc([N+](=O)[O-])o2)cs1
- mutagenic call [8]: active; positive

Compound: COP(=S)(OC)Oc1cc(Cl)c(Cl)cc1Cl
- mutagenic call [4]: active; positive

Compound: COc1c(Cl)ccc2oc3cc4c(c(OC)c3c(=O)c12)[C@@H]1C=CO[C@@H]1O4
- mutagenic call [5]: active; positive

Compound: CC(C)(c1ccc(O)cc1)c1ccc(O)cc1 (tested in a mixture with another compound)
- mutagenic call [8]: active; positive

Compound: O=C1OC2(c3ccccc31)c1cc(I)c(O)c(I)c1Oc1c2cc(I)c(O)c1I
- mutagenic call (Species/Cell Type: Bacillus subtilis (H17 vs M45), Assay Type: Rec-assay, spot test, DNA effects (bacterial DNA repair), Assay Code: REW-, Evaluation Type: Evaluation A (Pre-1980)): inactive; negative
- mutagenic call [2]: no conclusion
- mutagenic call [9]: active; positive
- mutagenic call (Species/Cell Type: Saccharomyces cerevisiae, Assay Type: Mitotic recombination or gene conversion, Assay Code: YEC-, Evaluation Type: Evaluation A (Pre-1980)): inactive; negative
- mutagenic call (Species/Cell Type: Salmonella typhimurium (one or more of the five standard strains: TA98, TA100, TA1535, TA1537, and TA1538), Assay Type: Histidine reverse gene mutation, Ames assay, Assay Code: SAL-, Evaluation Type: Evaluation A (Pre-1980)): inactive; negative

Compound: COc1cc2c(c3oc(=O)c4c(c13)CC[C@@H]4O)[C@@H]1C=CO[C@@H]1O2
- mutagenic call (Species/Cell Type: Human diploid fibroblasts, Assay Type: Unscheduled DNA synthesis (UDS) in vitro, DNA effects, Assay Code: UDH+D, Dose Response: With dose response, Evaluation Type: Evaluation A (Pre-1980)): active; positive
- mutagenic call [5]: active; positive

Compound: Nc1ccccc1O
- mutagenic call [4]: active; positive

Compound: O=C(O)/C=C/c1ccc([N+](=O)[O-])o1
- mutagenic call [8]: active; positive

Compound: CCOC(=O)Nc1ccc(-c2c3ccccc3c3cc(N)ccc3[n+]2C)cc1
- mutagenic call [8]: active; positive

Compound: CC1C(=O)OC2CC[N+]3([O-])CC=C(COC(=O)C(C)(O)C1(C)O)C23 (centres undefined)
- mutagenic call [10]: active; positive

Compound: O=NN1CCCCC1
- mutagenic call (Species/Cell Type: Drosophila melanogaster, Assay Type: Aneuploidy, partial sex chromosome loss, chromosome aberrations, Assay Code: DAPT, Evaluation Type: Evaluation A (Pre-1980)): no conclusion
- mutagenic call (Species/Cell Type: Drosophila melanogaster, Assay Type: Aneuploidy, whole sex chromosome loss, chromosome aberrations, Assay Code: DACT, Evaluation Type: Evaluation A (Pre-1980)): no conclusion
- mutagenic call [10]: active; positive
- mutagenic call (Species/Cell Type: Escherichia coli polA (W3119 vs P3478), Assay Type: Rec-assay, DNA effects (bacterial DNA repair), Assay Code: RE1+, Evaluation Type: Evaluation A (Pre-1980)): active; positive
- call [1]: active; positive
- mutagenic call [7]: active; positive
- mutagenic call (Species/Cell Type: Saccharomyces cerevisiae, Assay Type: Forward gene mutation, Assay Code: YEF+*, Activation: With metabolic activation, Evaluation Type: Evaluation A (Pre-1980)): active; positive
- mutagenic call (Species/Cell Type: Saccharomyces cerevisiae, Assay Type: Reverse gene mutation, Assay Code: YER+*, Activation: With metabolic activation, Evaluation Type: Evaluation A (Pre-1980)): active; positive
- mutagenic call [5]: active; positive
- mutagenic call [6]: active; positive

Compound: CCN(CC)CCOC(=O)c1ccc(N)cc1
- mutagenic call (Species/Cell Type: Escherichia coli polA (W3119 vs P3478), Assay Type: Rec-assay, DNA effects (bacterial DNA repair), Assay Code: RE1T, Evaluation Type: Evaluation A (Pre-1980)): no conclusion
- mutagenic call (Species/Cell Type: Salmonella typhimurium (one or more of the five standard strains: TA98, TA100, TA1535, TA1537, and TA1538), Assay Type: Histidine reverse gene mutation, Ames assay, Assay Code: SALT, Evaluation Type: Evaluation A (Pre-1980)): no conclusion

Compound: O=C(O)CCCc1ccc(N(CCCl)CCCl)cc1
- mutagenic call (Species/Cell Type: Chinese hamster ovary (CHO) cells, Assay Type: Forward gene mutation at the HPRT locus, Assay Code: CHO+, Evaluation Type: Evaluation B (Post-1980)): active; positive
- mutagenic call [10]: active; positive
- mutagenic call (Species/Cell Type: Human lymphocytes, Assay Type: Sister-chromatid exchange (SCE) in vitro, Assay Code: SCL+D, Dose Response: With dose response, Evaluation Type: Evaluation A (Pre-1980)): active; positive
- mutagenic call [3]: active; positive
- mutagenic call (Species/Cell Type: Human lymphocytes, Assay Type: Sister-chromatid exchange (SCE) in vivo, Assay Code: SCY+, Evaluation Type: Evaluation B (Post-1980)): active; positive
- mutagenic call (Species/Cell Type: Human, Assay Type: Sister-chromatid exchange (SCE) in vitro, Assay Code: SC1+D, Dose Response: With dose response, Evaluation Type: Evaluation A (Pre-1980)): active; positive
- mutagenic call [4]: active; positive
- mutagenic call (Species/Cell Type: Human, Sex: Male, Assay Type: Sperm morphology, Assay Code: SPH+, Evaluation Type: Evaluation A (Pre-1980)): active; positive
- mutagenic call [9]: active; positive
- call [1]: active; positive
- mutagenic call (Species/Cell Type: Nonhuman, Assay Type: Sister-chromatid exchange (SCE) in vitro, Assay Code: SC2+, Evaluation Type: Evaluation B (Post-1980)): active; positive
- mutagenic call (Species/Cell Type: Saccharomyces cerevisiae, Assay Type: Mitotic recombination or gene conversion, Assay Code: YEC+, Evaluation Type: Evaluation A (Pre-1980)): active; positive
- mutagenic call (Species/Cell Type: Saccharomyces cerevisiae, Assay Type: Reverse gene mutation, Assay Code: YER+, Evaluation Type: Evaluation A (Pre-1980)): active; positive
